The subject of one series is HBV. The experiment in a line: HepAD38 antiviral assay: reduction of viral product accumulation (virion DNA by qPCR, HBsAg or HBeAg by ELISA). Conditions: Hepatitis B virus, 120 h; HepAD38 cells, five days after compound addition; 50% reduction of viral product accumulation relative to no drug controls; read-out: HepAD38 EC50. The series is classed as cell-based. As for the experimental part:
(§1) Methods: HepAD38 cells are maintained as previously reported (Ladner et al, Antimicrob. Agents Chemother. 1997, […], 1715). Briefly, cells are passaged upon attaining confluency in DMEM/F12 media in the presence of 10% FBS, Penn/Strep, 250 μg/mL G418, and 1 ug/ml tetracycline. Novel compounds are screened by first washing cells three times with PBS to remove tetracycline, and plating in 96 well plates at 35,000 cells/well. Compounds dissolved in DMSO are then diluted 1:200 into wells containing cells. Five days after compound addition, material is harvested for analysis. For an extended 8 day analysis, cells are plated and treated as described above, but media and compound are refreshed on d2 and d5 post initial treatment.
On harvest day, virion DNA is obtained by lysing with Sidestep Lysis and Stabilization Buffer and then quantified via quantitative real time PCR. Commercially available ELISA kits are used to quantitate the viral proteins HBsAg (Alpco) or HbeAg (US Biological) by following the manufacturer's recommended protocol after diluting samples to match the linear range of their respective assays. Irrespective of readout, compound concentrations that reduce viral product accumulation in the cell lysates or supernatants by 50% relative to no drug controls (EC50) are reported; EC50 ranges are as follows: A<1 μM; B 1-10 μM; C>10 μM.

Series [1] can be described thus: Compound toxicity, ATPLite total ATP levels. The series is classed as cell-based. Conditions: human, HepAD38 cells; 15,000 cells/well, three days after compound addition; 50% reduction of total ATP levels relative to no drug controls. As to the method: as §1
Compound toxicity is evaluated by seeding cells at 15,000 cells/well and treating with compound as described above. Three days after compound addition, cells are treated with ATPLite reagent and compound concentrations that reduce total ATP levels in wells by 50% relative to no drug controls (CC50) are reported; CC50 ranges are as follows: A>30 μM; B 10-30 μM; C<10 μM.
For orientation: ATP-based viability assays read luminescence as a measure of living cells.

A value given as a limit tells only on which side of the number the result lay.

The EC50 is the concentration needed to bring the measured effect to its halfway point. For orientation: CC50 means the concentration at which the toxic effect on the cells reaches its halfway point. With `O=S(=O)(c1cc(-c2nc(-c3ccncc3)c[nH]2)ccc1Cl)N1CCC(O)CC1` [Example 51], the EC50 in the series on HBV is more than 10000 nM. The CC50 at 3 days in series [1] was more than 30 µM.
For the compound `CN1CCN(S(=O)(=O)c2cc(-c3nc(-c4ccc(Br)c(F)c4)c[nH]3)ccc2Cl)CC1` [Example 144], the EC50 in the series with HBV was less than 1000 nM. Besides, the CC50 at 3 days in series [1] was more than 30 µM.
Consider `CS(=O)(=O)CCNS(=O)(=O)c1cc(-c2nc(-c3ccc(Br)c(F)c3)c[nH]2)ccc1Cl` [Example 117], for which the EC50 with HBV was less than 1000 nM. The same compound came in with a CC50 at 3 days in series [1] of more than 30 µM.
The corresponding values for `COC(=O)C(C)NS(=O)(=O)c1cc(-c2nc(-c3ccc(Br)c(F)c3)c[nH]2)ccc1Cl` (stereo not shown) [Example 128] are more than 10000 nM and more than 30 µM.
The corresponding values for `O=S(=O)(c1cc(-c2cc(-c3ccc(F)c(Cl)c3)[nH]n2)ccc1Cl)N1CCC(O)CC1` [Example 29] are less than 1000 nM and less than 10 µM.
The corresponding values for `O=S(=O)(c1cc(-c2nc(-c3ccccn3)c[nH]2)ccc1Cl)N1CCC(O)CC1` [Example 33] are more than 10000 nM and 10 to 30 µM.
Regarding `CC(C)(C)OC(=O)NCCCNS(=O)(=O)c1cc(-c2nc(-c3ccc(Br)c(F)c3)c[nH]2)ccc1Cl` [Example 138], the EC50 in the series with HBV is less than 1000 nM. The same compound registered a CC50 at 3 days in series [1] of more than 30 µM.
Turning to `CNCCNS(=O)(=O)c1cc(-c2nc(-c3ccc(Br)c(F)c3)c[nH]2)ccc1Cl` [Example 118], in the series on HBV, the EC50 is less than 1000 nM. The compound also showed a CC50 at 3 days in series [1] of more than 30 µM.
`O=S(=O)(c1cc(-c2nc(-c3ccc(Br)c(F)c3)c[nH]2)ccc1Cl)N1CCN(CCO)CC1` [Example 145]: the EC50 in the series on HBV was less than 1000 nM. The CC50 at 3 days in series [1] is more than 30 µM.
On to `CN(CCCO)S(=O)(=O)c1cc(-c2nc(-c3ccc(Br)c(F)c3)c[nH]2)ccc1Cl` [Example 106], for which, in the series on HBV, the EC50 is less than 1000 nM. In series [1], this compound returned a half-maximal cytotoxic concentration (CC50) at 3 days of less than 10 µM.
Taken in the same sequence, the figures for `COC(=O)NCCCNS(=O)(=O)c1cc(-c2ncc(-c3ccc(F)c(Br)c3)[nH]2)ccc1Cl` [Example 62] were 1000 to 10000 nM and 10 to 30 µM.
Taken in the same sequence, the figures for `O=C1CCN(S(=O)(=O)c2cc(-c3ncc(-c4ccc(F)c(Br)c4)[nH]3)ccc2Cl)CC1` [Example 31] were 1000 to 10000 nM and 10 to 30 µM.
Taken in the same sequence, the figures for `O=S(=O)(c1cc(-c2cc(-c3ccc(F)c(F)c3)[nH]n2)ccc1Cl)N1CCC(O)CC1` [Example 8] were less than 1000 nM and 10 to 30 µM.
With `O=S(=O)(c1cc(-c2nc(-c3cccc(Br)c3)c[nH]2)ccc1Cl)N1CCC(O)CC1` [Example 54], in the series on HBV, the concentration for a half-maximal effect (EC50) is less than 1000 nM. The compound further yielded a CC50 at 3 days in series [1] of more than 30 µM.
Taken in the same sequence, the figures for `NCCCNS(=O)(=O)c1cc(-c2ncc(-c3ccc(F)c(Br)c3)[nH]2)ccc1Cl` [Example 61] were 1000 to 10000 nM and less than 10 µM.
The corresponding values for `COC(=O)NCCNS(=O)(=O)c1cc(-c2nc(-c3ccc(Br)c(F)c3)c[nH]2)ccc1Cl` [Example 119] are less than 1000 nM and less than 10 µM.
Taken in the same sequence, the figures for `O=S(=O)(c1cc(-c2ncc(-c3ccc(F)c(Cl)c3)[nH]2)ccc1Cl)N1CCC(O)CC1` [Example 13] were less than 1000 nM and 10 to 30 µM.
Consider `COc1ccccc1-c1c[nH]c(-c2ccc(Cl)c(S(=O)(=O)N3CCC(O)CC3)c2)n1` [Example 88], for which the EC50 with HBV was 1000 to 10000 nM.
On to `O=S(=O)(c1cc(-c2nc(-c3ccc(Br)c(F)c3)c[nH]2)ccc1Cl)N1CCN(c2cccc(Cl)n2)CC1` [Example 282], for which the EC50 with HBV is less than 1000 nM.
Same read-out and setting: with `O=S(=O)(c1cc(-c2nc(-c3ccc(Br)c(F)c3)c(Cl)[nH]2)ccc1Cl)N1CCC(O)CC1` [Example 184] the figure was more than 10000 nM; with `O=S(=O)(c1cc(-c2nc(-c3ccc(Br)c(F)c3)c[nH]2)ccc1Cl)N1CCCC[C@@H](O)C1` [Example 233], less than 1000 nM.
Still for that read-out and setting: with `CC(C)(C)CC(=O)NCCCNS(=O)(=O)c1cc(-c2nc(-c3ccc(Br)c(F)c3)c[nH]2)ccc1Cl` [Example 141] the figure was less than 1000 nM.
Same read-out and setting: with `CC(C)(C)c1cccc(-c2c[nH]c(-c3ccc(Cl)c(S(=O)(=O)N4CCC(O)CC4)c3)n2)c1` [Example 162] the figure was 1000 to 10000 nM; with `O=S(=O)(c1cc(-c2nc(-c3ccc(Br)c(F)c3)c[nH]2)ccc1Cl)N1C[C@H](O)CC[C@H](O)C1` [Example 284], less than 1000 nM.
Take `COC(=O)NCCCCNS(=O)(=O)c1cc(-c2nc(-c3ccc(Br)c(F)c3)c[nH]2)ccc1Cl` [Example 173]: the EC50 in the series on HBV was less than 1000 nM.
On the same count and under the same terms, as for `NS(=O)(=O)c1cc(-c2nc(-c3ccc(Br)c(F)c3)c[nH]2)ccc1Cl` [Example 153], the figure is 1000 to 10000 nM; as for `C[C@H]1CCN(S(=O)(=O)c2cc(-c3nc(-c4ccc(Br)c(F)c4)c[nH]3)ccc2Cl)C[C@@H]1O` [Example 245], less than 1000 nM; as for `O=S(=O)(NC[C@H](O)CO)c1cc(-c2ncc(-c3ccc(Br)c(F)c3)[nH]2)ccc1Cl` [Example 213], less than 1000 nM.
On the same count and under the same terms, as for `O=S(=O)(c1cc(-c2nc(-c3ccc(Br)c(F)c3)c[nH]2)ccc1Cl)N1CCC[C@H](O)[C@H](O)C1` [Example 263], the figure is less than 1000 nM; as for `COC(=O)NCCCCCCCNS(=O)(=O)c1cc(-c2nc(-c3ccc(Br)c(F)c3)c[nH]2)ccc1Cl` [Example 251], less than 1000 nM.
On the same count and under the same terms, as for `O=S(=O)(NCCCCc1nnn[nH]1)c1cc(-c2nc(-c3ccc(Br)c(F)c3)c[nH]2)ccc1Cl` [Example 215], the figure is more than 10000 nM; as for `O=S(=O)(c1cc(-c2nc(-c3ccc(Br)c(F)c3)c[nH]2)ccc1Cl)N1CCCC[C@H](O)C1` [Example 232], less than 1000 nM; as for `O=S(=O)(c1cc(-c2nc(-c3ccc(Br)c(F)c3)c[nH]2)ccc1Cl)N1CCC[C@H](O)CC1` [Example 235], less than 1000 nM.
In the case of `O=S(=O)(c1cc(-c2nc(-c3ccc(Br)c(F)c3)c[nH]2)ccc1Cl)N1CC[C@@H](O)[C@H](O)CC1` [Example 20], the EC50 with HBV was less than 1000 nM.
On the same count and under the same terms, with `O=S(=O)(N[C@H]1CC[C@@H](O)CC1)c1cc(-c2ncc(-c3ccc(Br)c(F)c3)[nH]2)ccc1Cl` [Example 227] the figure was less than 1000 nM; with `O=S(=O)(c1cc(-c2nc(-c3ccc(Br)c(F)c3)c[nH]2)ccc1Cl)N1CCC(c2ccccn2)CC1` [Example 220], less than 1000 nM; with `CC(C)(C)c1ccc(-c2c[nH]c(-c3ccc(Cl)c(S(=O)(=O)N4CCC(O)CC4)c3)n2)cc1` [Example 158], less than 1000 nM.
With `Cc1ccc(-c2c[nH]c(-c3ccc(Cl)c(S(=O)(=O)N4CCC(O)CC4)c3)n2)cc1` [Example 96], the EC50 in the series with HBV lay in the range of 1000 to 10000 nM.
As to `COC(=O)NCC(O)CNS(=O)(=O)c1cc(-c2nc(-c3ccc(Br)c(F)c3)c[nH]2)ccc1Cl` (stereo not shown) [Example 185], the EC50 in the series with HBV was less than 1000 nM.
Same read-out and setting: as for `CC1(C)CN(S(=O)(=O)c2cc(-c3ncc(-c4ccc(Br)c(F)c4)[nH]3)ccc2Cl)CCC1O` (stereo not shown) [Example 258], the figure is less than 1000 nM.
In the case of `CC(C)(O)CNS(=O)(=O)c1cc(-c2ncc(-c3ccc(Br)c(F)c3)[nH]2)ccc1Cl` [Example 224], in the series on HBV, the EC50 was less than 1000 nM.
The same measure, in the same setting: with `O=S(=O)(c1cc(-c2nc(-c3ccc(Br)c(F)c3)c[nH]2)ccc1Cl)N1CC[C@@H](CO)C1` [Example 253] the figure was less than 1000 nM.
For `O=S(=O)(c1cc(-c2nc(-c3ccccc3Cl)c[nH]2)ccc1Cl)N1CCC(O)CC1` [Example 75], in the series on HBV, the EC50 is more than 10000 nM.
As for `O=S(=O)(c1cc(-c2nc(-c3ccc(Br)c(F)c3)c[nH]2)ccc1Cl)N1CCC[C@@H](O)[C@H](O)C1` [Example 277], in the series with HBV, the EC50 was less than 1000 nM.
Still for that read-out and setting: as for `N#CCCCCNS(=O)(=O)c1cc(-c2nc(-c3ccc(Br)c(F)c3)c[nH]2)ccc1Cl` [Example 191], the figure is less than 1000 nM.
`O=S(=O)(c1cc(-c2nc(-c3cc(F)c(F)c(Cl)c3)c[nH]2)ccc1Cl)N1CCC(O)CC1` [Example 78]: the EC50 in the series on HBV is more than 10000 nM.
For `O=C(CCCNS(=O)(=O)c1cc(-c2nc(-c3ccc(Br)c(F)c3)c[nH]2)ccc1Cl)Nc1ccccc1` [Example 194], in the series with HBV, the EC50 is less than 1000 nM.
The same measure, in the same setting: with `CC(C)(C)OC(=O)NCCCCCCCNS(=O)(=O)c1cc(-c2nc(-c3ccc(Br)c(F)c3)c[nH]2)ccc1Cl` [Example 252] the figure was less than 1000 nM; with `COC(=O)N(C)CCCNS(=O)(=O)c1cc(-c2nc(-c3ccc(Br)c(F)c3)c[nH]2)ccc1Cl` [Example 178], less than 1000 nM; with `COC(=O)NCCCN(C)S(=O)(=O)c1cc(-c2nc(-c3ccc(Br)c(F)c3)c[nH]2)ccc1Cl` [Example 190], less than 1000 nM.
Still for that read-out and setting: as for `O=S(=O)(c1cc(-c2ncc(-c3ccc(Br)c(F)c3)[nH]2)ccc1Cl)N1CCC[C@H](O)C1` [Example 226], the figure is less than 1000 nM; as for `O=S(=O)(c1cc(-c2ncc(-c3ccc(Br)c(F)c3)[nH]2)ccc1Cl)N1CCC2(O)CC2C1` (stereo not shown) [Example 256], less than 1000 nM; as for `O=S(=O)(c1cc(-c2nc(-c3ccc(Br)c(F)c3)c[nH]2)ccc1Cl)N1C[C@H](O)CC[C@@H](O)C1` [Example 283], less than 1000 nM.

Values taken from patent US10442788B2, “Hepatitis B antiviral agents” (ENANTA PHARMACEUTICALS, INC., priority 2015, dated 2019).
